Results from patent US20160271188A1, “PROBIOTIC AND PREBIOTIC COMPOSITIONS, AND METHODS OF USE THEREOF FOR TREATMENT OF GASTROINTESTINAL DISORDERS” (Epiva Biosciences, Inc., priority 2014, published 2016).
Entries after “also recorded” stand apart in the source; their conditions may differ.

Assays:
[1] = test system: tumors; details: oral administration; Sivan et al., Vetizou et al.; cited from earlier work
[2] = test system: human peripheral blood mononuclear cells (PBMCs); test: Cytokine release by human PBMCs incubated with commensal bacteria alone or with E. faecalis (Luminex); type: cell-based; details: for overall anti-inflammatory cytokine profile for a Th-1-driven condition such as GVHD: alone and with EPV 8
Protocol: An in vitro system was developed to efficiently test the inflammatory and immunomodulatory properties of different human commensal bacteria on human peripheral blood mononuclear cells (PBMCs). Experiments were carried out with 21 bacterial candidates to profile their anti-inflammatory properties against human PBMCs. The innate properties of bacteria alone on human PBMCs were tested as well as their ability to counteract the pro-inflammatory activity of Enterococcus feacalis.
Human PBMCs were isolated from fresh blood by density-gradient centrifugation using Ficoll (1-4). […] The results are presented in FIGS. 2-5 for all time points. […] The 24 h results are shown as a composite in FIG. 6 and with statistical analysis on individual cytokines in FIGS. 7-10. The results represent the properties of each bacterial species against human PBMCs and their ability to counteract inflammatory stimulation with E. faecalis in vitro.

[3] = test system: microbiome of the vagina; details: mouse, in vivo
Text: (§1) The trillions of organisms forming the microbiome function as an organ system interconnected throughout the body. The possibility that modification of the microbiome in a given physical location may influence the microbiome at other sites in the body (distal augmentation) was investigated. Seven week old C57Bl/6 female mice were acclimatized for 7 days prior to the start of the study by daily handling and shuffling between cages. All mice were housed at three mice per cage in individually vented cages (Thoren, Hazleton, Pa.). At day 0, baseline fresh fecal pellets, and vaginal lavages with 100 μL of sterile double-distilled water were collected and immediately frozen at −80° C. for microbiome analysis. […] Water alone is not expected to influence the microbiome and acted as a negative control. […] The impact of oral vancomycin is therefore expected to be limited to the gastrointestinal tract such that microbiome changes elsewhere in the body (e.g. vagina) would be attributable to distal augmentation. At day 6, fresh fecal pellets and vaginal lavages with 100 μL of sterile double-distilled water were collected and immediately stored at −80° C. for microbiome analysis.
(§2) Isolation and sequencing of microbial DNA from the stool and vaginal samples was performed by DNA Genotek (Ottawa, ON, Canada). The V3-V4 region of the 16S ribosomal subunit was amplified with custom PCR primers and sequenced on an Illumina MiSeq to a minimum acceptable read depth of 25,000 sequences per sample. […] These OTU's were then assigned a curated taxonomic label based on the seven level SILVA taxonomy.

[4] = test system: microbiome of the gut; details: mouse, in vivo
Text: as §1, §2

[5] = in vivo, po; cited from earlier work
[6] = test system: gut microbiome; test: Normal human volunteer study of D-xylose: changes in the gut microbiome (stool V3-V4 16S sequencing); type: in vivo; details: for gut microbiome community composition: over time on study; for alpha diversity of the gut microbiome: regardless of ingestion amount
[7] = test system: gut microbiome; details: mouse, in vivo
[8] = Normal human volunteer study of D-xylose: serum and urine pharmacokinetics; type: in vivo
Text: Blood and urine were collected at pre-specified pre- and post-ingestion time points to measure D-xylose levels and to characterize the systemic absorption profiles of D-xylose. Phoenix® WinNonLin®, Version 6.2.1, was used for PK analyses. Serum D-xylose concentrations were summarized by cohort using nominal sample times according to actual amount received using summary statistics (n, coefficient of variation [CV], mean, standard deviation [SD], median, minimum, and maximum). Evidence for the occurrence of steady-state was assessed graphically by comparing the time course of either trough or 2-hour post-ingestion serum concentrations of D-xylose as different levels of D-xylose. Accumulation was assessed by comparing the 2-hour post-first-ingestion serum levels with those observed at Week 2 (Day 15) and Week 4 (Day 28). […] Urine PK parameters for D-xylose levels included Ae(0-t) (cumulative amount of sweetener recovered in urine) and percent sweetener amount excreted over a 5-hour period.

[9] = test system: healthy, adult volunteers; test: Normal human volunteer study of D-xylose: CRP, serum cytokines, T-cell markers; type: in vivo
Text: Blood was collected at pre-specified pre- and post-ingestion time points to evaluate C-reactive protein (CRP), serum cytokines (tumor necrosis factor alpha [TNF-α], interleukin [IL]-2, IL-6, interferon gamma [IFN-γ], and IL-10), and T-cell markers CD3, CD4, CD8, CD25, and FOXP3. Plasma was also stored and may be tested for biomarkers and/or metabolic markers for up to 7 years.
Summary statistics (n, mean, standard deviation, median, minimum, and maximum) were presented for serum concentrations of CRP, flow cytometry T-cell markers (CD3, CD4, CD8, CD25, and FOXP3), and cytokines (TNF-α, IL-2, IL-6, IFN-γ, and IL-10) as per their nominal time points.

[10] = test system: healthy, adult volunteers; details: human, in vivo
Protocol: D-xylose is a carbon source generally preferred by anaerobic bacteria. […] A parallel, double-blind, 5 cohort escalation food safety study was conducted to examine D-xylose in normal human volunteers. The study was a double-blind, single-center, parallel group study designed to evaluate the tolerability and potential microbiome changes induced by ingestion of D-xylose at 5 different amounts in healthy, adult volunteers enrolled at 1 study center in the United States (US).
Subjects were screened for eligibility within 21 days prior to the first planned ingestion of study sweetener on Day 1 (Baseline). […]
Subjects returned to the study center weekly on Days 8, 15, 22, and 28 for ingestion, tolerability, and compliance evaluations. Safety was evaluated on a continual basis through adverse events (AE) monitoring, clinical laboratory measurements, vital sign monitoring, physical examinations, electrocardiograms (ECGs), telephone follow-up, and electronic subject ingestion diaries. Stool was collected pre-ingestion and at pre-specified time points, and post-ingestion samples were evaluated for changes in the gut microbiome compared with Baseline for all subjects. […]
Safety was evaluated on a continual basis through AE monitoring, clinical laboratory measurements, vital sign monitoring, physical examinations, ECGs, telephone follow-up, and electronic subject ingestion diaries. […]

In the case of Bifidobacterium, the “responsiveness to checkpoint inhibitor therapy in cancer” value [1] is given as “increases the responsiveness to checkpoint inhibitor therapy”.
For Lactobacillus, the “responsiveness to checkpoint inhibitor therapy in cancer” value [1] is given as “not”.
For B. luti [EPV3], the “intrinsic inflammatory activity (induction of pro-inflammatory cytokines) compared to EPV 8” value [2] was “relatively low intrinsic inflammatory activity compared to EPV 8”, the “overall anti-inflammatory cytokine profile for a Th-1-driven condition such as GVHD” value [2] was “significantly desirable anti-inflammatory profile; also recorded: capable of inducing a desirable anti-inflammatory cytokine profile” and the “ability to reduce induction of pro-inflammatory cytokines by EPV 8 (IL-6, MCP-1, IL-12p70, IFNγ)” value ([2]; combination with EPV 8) was “able to reduce the induction of pro-inflammatory cytokines by EPV 8”.
In the case of `CN[C@H](CC(C)C)C(=O)N[C@H]1C(=O)N[C@@H](CC(N)=O)C(=O)N[C@H]2C(=O)N[C@H]3C(=O)N[C@H](C(=O)N[C@H](C(=O)O)c4cc(O)cc(O)c4-c4cc3ccc4O)[C@H](O)c3ccc(c(Cl)c3)Oc3cc2cc(c3O[C@@H]2O[C@H](CO)[C@@H](O)[C@H](O)[C@H]2O[C@H]2C[C@](C)(N)[C@H](O)[C@H](C)O2)Oc2ccc(cc2Cl)[C@H]1O` [vancomycin], the “median abundance of bacterial species in vaginal samples at day 6 that were not present at day 0” value [3] is reported as “approximately 0.00002%”, the “day 0 to day 6 pattern in vaginal samples (PCA)” value ([3]; po) is reported as “showed an overall difference” and the “impact on the microbiome of the gut (PCA at family level)” value [4] is reported as “strong impact on the microbiome of the gut”. The “absorption from the gut” value [5] was “poorly absorbed from the gut”.
In the case of Bacteroides, the “responsiveness to checkpoint inhibitor therapy in cancer” value [1] is given as “increases the responsiveness to checkpoint inhibitor therapy”.
For B. wexlerae [EPV5], the “overall anti-inflammatory cytokine profile for a Th-1-driven condition such as GVHD” value [2] was “suboptimal anti-inflammatory profile for GVHD; also recorded: induces a suboptimal profile for GVHD”.
With `O=C[C@H](O)[C@@H](O)[C@H](O)CO` [D-xylose] the “Chao diversity index (community richness)” value ([6]; over time) was “overall decrease in the Chao diversity index over time”, the “gut microbiome community composition” value [6] was “no significant changes in community composition” and the “gut microbiome community composition” value ([6]; listed as xylose) was “exerts subtle changes in the gut microbiome”. For the same compound, the “alpha diversity of the gut microbiome” value ([6]; over time) was “no apparent significant impact on the intra-sample alpha diversity”, the “alpha diversity of the gut microbiome” value ([6]; over time, listed as xylose) was “no major shifts in the microbiome alpha diversity” and the “shifts in the gut microbiome” value [7] was “did not cause major shifts in the gut microbiome but showed some differences at the family level”. The “ingested amount recovered in urine within 5 hours post-ingestion” value ([8]; 1 g TID, Days 1, 15 and 28) was “approximately 40%”, the “serum D-xylose concentrations vs ingestion amount” value ([8]; 1 to 15 g TID) was “increased linearly with increasing ingestion amounts” and the accumulation ratio ([8]; Day 15, 15 mg TID cohort) was “approximately 1.9 fold”. The “accumulation of serum D-xylose” value ([8]; Day 15, 1 g to 12.5 g TID) was “Little to no accumulation”, the accumulation ratio ([8]; Day 28, 15 g TID) was 1.68 and the “serum interferon gamma over time” value ([9]; 2 g and 15 g cohorts) was “trend for reduced levels of serum interferon gamma over time”. For the same compound, the “subjects with normal serum CRP at Baseline and at least 1 post-ingestion CRP value >2.9 mg/L” value ([9]; all cohorts) was 8.3%, the “total T-cells and T-cell subsets over time” value ([9]; any ingestion amount) was “No consistent or clinically meaningful changes over time” and the “serum cytokines (TNF-α, IL-2, IL-6, IFN-γ, IL-10) over time” value ([9]; most data points BLQ, any ingestion amount) was “did not indicate any consistent or clinically meaningful changes over time”. For the same compound, the “SAEs, severe AEs, deaths” value [10] was “No SAEs, severe AEs, or subject deaths” and the “subjects who experienced at least 1 AE” value ([10]; 28 days) was 38.9%.
